From patent US8022180B2, “Method for preventing and treating Alzheimer's disease” (Affiris Forschungs-und Entwicklungs GmbH, priority 2004, dated 2011)

Tests used:
[1] = tested on: DAEFRH (SEQ ID NO: 26)-specific mAb; assay: ELISA with peptide libraries (detection by biotinylated DAEFRH-specific mAb); format: binding, mice; conditions: mimotopes from libraries 1-3
Text: (§1) Mice are vaccinated with the 6mer peptide DAEFRH (SEQ ID NO: 26) (natural N-terminal Aβ42 sequence) linked to the protein bovine serum albumin BSA (to make use of the hapten-carrier-effect), emulsified in CFA (first injection) and IFA (booster injections). DAEFRH (SEQ ID NO: 26)-peptide-specific, antibody-producing hybridomas are detected by ELISA (DAEFRH (SEQ ID NO: 26)-peptide-coated ELISA plates).
As mentioned above, peptide libraries 1, 2, and 3 are generated with an Applied Biosystems 431A peptide synthesizer following classical Fmoc-chemistry. The commercially available peptide library 4 is generated according to the manufacturer's description (see above and under www.mimotopes.com). The 90 peptides are C-terminally linked to a pin.
The ELISA with each of the peptide libraries have been carried out following standard protocols:
The peptide library is dissolved in 100% DMSO (final concentration 10 mg/ml).
The peptide solution is further diluted in PBS.
The peptide mixture is coated overnight (4° C.) onto ELISA plates (Nunc Maxisorp, Germany), starting with 500 μg/well, and titrated to 100 ng/well.
The plates are washed 3× times with PBS/Tween 20 (0.1% v/v).
The plates are blocked with PBS/BSA (2 h at room temperature).
The plates are washed 3× times with PBS/Tween.
The plates are incubated with biotinylated DAEFRH (SEQ ID NO: 26)-specific mAb (10 μg/ml in PBS) for 4 h at room temperature.
The plates are incubated with streptavidin-horseradish-peroxidase (30 min at room temperature).
The plates are washed 5× times with PBS/Tween.
The plates are incubated with ABTS+H2O2 (0.1% w/v; 10 to 45 min) and the reaction is stopped with citric acid followed by photometric evaluation (wavelength 405 nm).

[2] = tested on: monoclonal antibody specific for the natural N-terminal Aβ42 sequence DAEFRH; assay: Inhibition assay: mimotope peptides compete with plate-bound DAEFRH-BSA for recognition by the biotinylated monoclonal antibody (ELISA); format: binding, mice; parameters: key to inhibition (s/m/—): s: strong inhibition; m: moderate inhibition; —: no inhibition; conditions: for inhibition of epitope recognition by the monoclonal antibody (in words): FIGS. 2-9; for inhibition (s/m/—): peptides of the new screening round and 5mers with non natural amino acids; for Inhibitory capacity of mimotopes: summary Tables 1 and 2, in words
Text: 1.: Generation of Monoclonal Antibodies (mAb) to Detect Aβ42-Derived Peptide Species with Free N-Terminus (Free Aspartic Acid at the N-Terminus)
as §1
(§2) FIGS. 2 and 3 describe the results of inhibition assays performed with mimotope peptides included in and obtained from the 5 libraries (as described). The mimotope peptides compete with the original epitope for recognition by the monoclonal antibody. Original epitope and mimotope peptides contain an additional C at the C-terminus for coupling to a protein carrier (if desired).
(§3) After blocking with PBS/BSA 1% (200 μl/well, 12 h, 4° C.), the plates are washed 3× times with PBS/Tween. Then, biotinylated monoclonal antibody (1:2000, 50 μl/well) and peptides (50 μl/well) at 50, 5, 0.5, 0.05, 0.005, and 0.0005 μg/ml are added for 20 min. at 37° C. The plates are washed 3× times with PBS/Tween and are incubated with horseradish peroxidase (HRP)-labeled streptavidin (100 μl/well, 30 min, RT). The plates are washed 5× times with PBS/Tween and are incubated with ABTS+H2O2 (0.1% w/v, 10 to 45 min) and the reaction is stopped with citric acid followed by photometric evaluation (wavelength 405 nm).
as §2, with “4” for “2”, “5” for “3”, “C-terminus (position 7)” for “C-terminus”
as §3, with “different concentrations” for “50, 5, 0.5, 0.05, 0.005, and 0.0005 μg/ml”
as §2, with “6 to 8” for “2 and 3”, “2” for “5”, “described above).” for “described).”, “C-terminus (position 7 or position 8, respectively)” for “C-terminus”

Substance | detection by the monoclonal antibody [1] | inhibition of epitope recognition by the monoclonal antibody (in words) [2] | inhibition (s/m/—) [2] | other results
DIDYHR | can be detected by the monoclonal antibody |  |  | 
DIDYRR | can be detected by the monoclonal antibody |  |  | 
DLDYHR | can be detected by the monoclonal antibody |  |  | 
DLDYRR | can be detected by the monoclonal antibody |  |  | 
DVDYHR | can be detected by the monoclonal antibody |  |  | 
DVDYRR | can be detected by the monoclonal antibody |  |  | 
EIDYHR | can be detected by the monoclonal antibody |  |  | 
ELDYHR | can be detected by the monoclonal antibody |  |  | 
EVDYHR | can be detected by the monoclonal antibody |  |  | 
GSEFRDY [Peptide 4013] |  | moderately inhibit binding | m | 
KKELRI [Peptide 1234] |  | hardly inhibitory at the concentrations tested |  | Inhibitory capacity of mimotopes [2]: none
SAEFRAT [Peptide 4016] |  | strongly block epitope recognition | s | 
SAEFRTQ [Peptide 4015] |  | strongly block epitope recognition | s | 
SWEFRLY [Peptide 4018] |  | strongly block epitope recognition | s | 
SWEFRNP [Peptide 4017] |  | strongly block epitope recognition | s | 
SWFRNP [Peptide 4019] |  | not inhibitory at the concentrations tested | — | 
VPTSALA [Peptide 4037] |  | not inhibitory at the concentrations tested | — | 
WHWSWR [Peptide 4004] |  | not able to inhibit binding |  | Inhibitory capacity of mimotopes [2]: none
YREFFI [Peptide 3003] |  | not able to inhibit binding |  | Inhibitory capacity of mimotopes [2]: none
YREFRI [Peptide 3004] |  | block epitope recognition |  | concentration at which the peptide is only inhibitory ([2]; only inhibitory at a (relatively) high concentration): 50 µg/mL; Inhibitory capacity of mimotopes [2]: weak
